Key:
[1] = test system: bovine brain glycolipid transfer protein (GTP) cDNA (660 bp); assay: PCR amplification of GTP with lower denaturation/extension temperatures; assay type: biochemical; conditions: for Potency: annealing 55° C., normalized: 1,5-pentanediol (95/72° C.) = 1; for Effective: concentration interval over which target band minus control is at least 50% of maximum volume
Description: Amplification reactions were carried out under the following general conditions. Those skilled in the art will appreciate, however, that to the extent that the conditions (set forth in this application) required for specific experiments described in this example were inconsistent with the following general conditions, limited exceptions to the following general conditions were made The general conditions were as follows: 10 Mm Tris-HCl (Ph 8.8), 50 Mm KCl, 1.5 Mm MgCl2, 0.01% (w/v) gelatin, 0.2 Um primers, 0.06 ng/ul template, 0.2 Mm each Dntp, 0.04 U/ul Taq polymerase. The templates used were bovine brain N-WASP cDNA (1518 bp), a 996 by segment of human myeloid leukocyte c-jun cDNA, a 511 by segment of human prostate-specific membrane antigen (PSM) cDNA, and bovine brain glycolipid transfer protein (GTP) cDNA (660 bp). cDNA synthesis was carried out using the FIRST-STRAND® RT-PCR kit from Stratagene on the respective mRNAs purchased from Clontech. All amplification reactions for gene were carried out using a single master batch of cDNA. Taq polymerase and dNTPs were obtained from Stratagene. Primers were obtained from Genosys. Primer melting temperatures (Tms) were calculated using the Genosys oligo calculator program. The sequences of the primers were as follows.
Polymerase chain reactions for the N-WASP gene were conducted on a ROBOCYCLER® Gradient 40 thermal cycler from Stratagene using 100 ul solutions in 600 ul thin-walled tubes. For expediency, amplification of c-jun, PSM and GTP was carried out in a ROBOCYCLER® Gradient 96 thermal cycler from Stratagene using 50 ul solutions in 200 ul thin-walled tubes. Prior to Taq polymerase addition, a hotstart protocol was carried out that consisted of an initial cycle of 95° C. for 5 minutes (11) to ensure complete first-strand separation, followed by a cycle of 54° C. for 5 minutes. Amplifications were run for 30 cycles. Denaturation was done for 1 minute at the minimum temperatures that yielded discernable amplification: 92° C. for N-WASP and 95° C. for c-jun, PSM and GTP. Extension was done at 72° C. for periods depending on target length: 2 minutes for N-WASP, 1.5 minutes for c-jun and GTP, and 1 minute for PSM. Annealings were carried out either at fixed concentrations of additives using temperature gradients of 38-56° C. for N-WASP and 44-58° C. for the other targets, or at varying concentrations of additives using fixed temperatures of 41° C. for N-WASP, 50° C. for c-jun and PSM, and 54° C. for GTP.
Amplification products were analyzed by agarose gel electrophoresis on 0.8% agarose gels in which 20 ul reaction products were loaded with 4 ul loading buffer. Gels were stained with ethidium bromide, visualized on a UV transilluminator (Fisher), and documented by photography. Densitometric quantitation of amplification products was carried out using IMAGE SCANNER® and IMAGE MASTER® software from Amersham Pharmacia. Background correction was done using the software's rolling disc method.
Two phases of investigations were carried out into the use of 62° C. extension temperature in PCR reactions. The first involved concentration gradients with 1,2-butanediol and 1,5-pentanediol employing 62° C. extension and 95° C. denaturation. The first template used was GTP. A larger range of concentrations was employed than usual in the experiments due to the anticipated increase in effective range. These concentrations were: 0.1, 0.31, 0.5, 0.6, 0.8, 0.9 and 1.1M for 1,2-butanediol and 0.01, 0.2, 0.3, 0.4, 0.5, 0.7 and 1.0M for 1,5-pentanediol. The second phase of investigation involved experiments in which the denaturation temperature was lowered to 92° C. The following concentrations were tested: 1,2-butanediol—0.1, 0.3, 0.5, 0.6, 0.7, 0.9, 1.1, 1.3, and 1.4M; 1,5-pentanediol: 0.1, 0.2, 0.3, 0.4, 0.5, 0.7, 1.0, and 1.4M. 1,2-butanediol was also tested with the more GC-rich template c-jun. The following concentrations were tested: 0.1, 0.3, 0.5, 0.7, 0.9, 1.1, 1.4M.

[2] = test system: 50% GC DNA; assay: Predicted cosolvent-induced Tm depression of DNA; assay type: physicochemical; conditions: 1.0M 1,5-pentanediol, 0.7M 1,6-hexanediol, linearity not verified
Description: The compounds utilized in the first phase (testing using 1.0M 1,5-pentanediol and 0.7M 1,6-hexanediol at temperatures between 46 and 62° C.) were chosen on the basis of the following rationale. The optimal additive for a low temperature PCR reaction is one that lowers the melting temperature of DNA as much as possible while minimally compromising polymerase activity. 1,5-Pentanediol and 1,6-hexanediol are both powerful DNA melting agents. In addition, it was found in the 62° C. activity studies that the rate of activity decline with concentration of 1,5-pentanediol was roughly equivalent to that of 1,2-butanediol, despite the fact that the former is a much stronger DNA denaturant. 1.0M 1,5-pentanediol and 0.7M 1,6-hexanediol are predicted to lower the Tm of a 50% GC DNA by approximately the same amount: 19° C.

[3] = target: T1, Taq polymerase (Thermus aquaticus, UniProt P19821); assay: Predicted thermostability (half-life) of Taq polymerase in the presence of diols; assay type: biochemical
T1 construct: purchased Stratagene
T1 sequence (P19821 whole entry): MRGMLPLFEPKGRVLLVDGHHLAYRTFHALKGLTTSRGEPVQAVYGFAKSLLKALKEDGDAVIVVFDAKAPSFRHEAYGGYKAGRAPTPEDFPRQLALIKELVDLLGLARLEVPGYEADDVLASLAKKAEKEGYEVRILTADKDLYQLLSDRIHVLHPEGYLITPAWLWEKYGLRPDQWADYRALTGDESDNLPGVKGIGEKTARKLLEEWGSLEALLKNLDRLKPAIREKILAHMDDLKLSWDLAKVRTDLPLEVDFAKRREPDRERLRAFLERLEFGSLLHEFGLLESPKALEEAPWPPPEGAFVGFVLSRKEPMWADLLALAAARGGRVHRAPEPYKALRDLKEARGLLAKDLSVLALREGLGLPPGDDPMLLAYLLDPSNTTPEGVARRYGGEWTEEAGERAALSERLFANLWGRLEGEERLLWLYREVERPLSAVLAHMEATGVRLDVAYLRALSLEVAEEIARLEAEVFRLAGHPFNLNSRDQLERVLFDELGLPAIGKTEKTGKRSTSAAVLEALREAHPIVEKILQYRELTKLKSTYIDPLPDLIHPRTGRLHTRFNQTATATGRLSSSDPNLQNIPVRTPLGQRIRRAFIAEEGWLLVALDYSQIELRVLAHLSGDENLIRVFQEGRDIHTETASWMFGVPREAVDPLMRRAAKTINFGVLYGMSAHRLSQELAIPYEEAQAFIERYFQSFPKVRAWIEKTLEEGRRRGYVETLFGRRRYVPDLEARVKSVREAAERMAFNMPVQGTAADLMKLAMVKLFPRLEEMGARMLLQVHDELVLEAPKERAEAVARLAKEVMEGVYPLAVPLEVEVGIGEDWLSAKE
Description: It is possible that this discrepancy was due to the greatly diminished thermostability of the polymerase at the cutoff concentrations. Based on thermodynamic data, Taq polymerase in the absence of template is predicted to have a half-life of about 8 seconds at 95° C. in the presence of 0.9M 1,2-butanediol and 10 seconds in the presence of 0.6M 1,5-pentanediol. These values will be increased in the presence of template, but will still be very low, especially during the initial cycles when template concentration is limited.

[4] = 92/62° C. denaturation/extension
[5] = 95/62° C. denaturation/extension

Structure (SMILES)	Potency [1, 4]	Effective ([1]; 92/62° C.)	cutoff concentration ([1]; 92° C. denaturation, 62° C. extension)	Potency [1, 5]	Effective ([1]; 95/62° C.)	lowering of the Tm of a 50% GC DNA [2]	half-life of Taq polymerase [3]
OCCCCCO [1,5-Pentanediol]	1.97	0.29-0.90	1.0 M	1.49	0.15-0.63	~19 °C	~10 s
CCC(O)CO (centres unmarked) [1,2-Butanediol]	1.50	0.50-1.27	–	0.88	0.10-0.82	–	–
